Reference: PMC8228600, “Design, Synthesis, In Vitro and In Vivo Evaluation of Heterobivalent SiFAlin-Modified Peptidic Radioligands Targeting Both Integrin αvβ3 and the MC1 Receptor—Suitable for the Specific Visualization of Melanomas?” (Pharmaceuticals, 2021)

Assay: Stability of radiotracers in human serum (radio-HPLC)
Format: in vitro ADME
Details: 37 °C, 120 min, mean ± SD, read-out: Stability: intact radiotracer after 120 min of incubation in human serum
Description: In addition to the investigation of the radiotracers’ lipophilicity, their stability in human serum was evaluated in order to determine possible stability issues of the newly developed agents. For this purpose, the respective ^18F-labeled HBPLs were incubated in human serum at 37 °C for 120 min. The results of these experiments are summarized in Table 1, and the corresponding radio-HPLC chromatograms for [^18F]2 as representative examples for all compounds studied are depicted in Figure 3A (see Supplementary Materials, Figure S91 for the results obtained for the other radioligands). In Figure 3B, the portions of intact radiotracer over the course of the stability experiments are depicted.
The radiotracer solutions were first diluted with 0.9% NaCl solution to give a final EtOH concentration of <10%. Then, 6 × 25 μL radiotracer solution was added to 6 × 100 μL human serum and incubated at 37°C for 120 min. At defined time points (5, 15, 30, 60, 90 and 120 min), 125 μL EtOH was added to one of the mixtures and the precipitation of serum proteins was supported by ice-cooling for 2 min. After centrifugation at 13.4 rpm for 2 min, the supernatant was analyzed by analytical radio-HPLC (0–100% MeCN + 0.1% TFA in 5 min). The experiment was performed for each compound trice by three independent experiments.

CCCC[C@H](NC(=O)CNC(=O)CNC(=O)CCOCCOCCOCCOCCC(=O)NCCCN(CCCNC(=O)CCOCCOCCOCCOCCC(=O)NCCCC[C@@H]1NC(=O)[C@@H](Cc2ccccc2)NC(=O)[C@H](CC(=O)O)NC(=O)CNC(=O)[C@H](CCCNC(=N)N)NC1=O)CC(=O)N[C@@H](CCCCNC(=O)CCC[N+](C)(C)Cc1ccc([Si](F)(C(C)(C)C)C(C)(C)C)cc1)C(N)=O)C(=O)N[C@H]1CC(=O)NCCCC[C@@H](C(N)=O)NC(=O)[C@H](Cc2c[nH]c3ccccc23)NC(=O)[C@H](CCCNC(=N)N)NC(=O)[C@@H](Cc2ccccc2)NC(=O)[C@H](Cc2c[nH]cn2)NC1=O [[^18F]2]
remaining at 2 h: 85.4 ± 2.8%

CCCC[C@H](NC(=O)CNC(=O)CNC(=O)CCOCCOCCOCCOCCOCCOCCOCCOCCOCCC(=O)NCCCN(CCCNC(=O)CCOCCOCCOCCOCCOCCOCCOCCOCCOCCC(=O)NCCCC[C@@H]1NC(=O)[C@@H](Cc2ccccc2)NC(=O)[C@H](CC(=O)O)NC(=O)CNC(=O)[C@H](CCCNC(=N)N)NC1=O)CC(=O)N[C@@H](CCCCNC(=O)CCC[N+](C)(C)Cc1ccc([Si](F)(C(C)(C)C)C(C)(C)C)cc1)C(N)=O)C(=O)N[C@H]1CC(=O)NCCCC[C@@H](C(N)=O)NC(=O)[C@H](Cc2c[nH]c3ccccc23)NC(=O)[C@H](CCCNC(=N)N)NC(=O)[C@@H](Cc2ccccc2)NC(=O)[C@H](Cc2c[nH]cn2)NC1=O [[^18F]4]
remaining at 2 h: 83.6 ± 0.8%
